Assay results published in US8598153B2, “Method of treatment using fatty acid synthesis inhibitors” (Merck Sharp & Dohme Corp., priority 2006, dated 2013).

Experiments:
rat FAS = molecular target: T1, rat FAS (Rattus norvegicus, UniProt P12785); test: FAS inhibitory activity in cell free Flashplate assay (formation of 3H-palmitate), rat FAS; type: biochemical; settings: rat liver FAS, cell free flash plate assay
T1 construct: The clarified supernatant was fractionated by ammonium sulfate precipitation; from tissue; host or cells: rat liver (fasted and high carbohydrate re-fed rats)
T1 sequence (P12785 whole entry): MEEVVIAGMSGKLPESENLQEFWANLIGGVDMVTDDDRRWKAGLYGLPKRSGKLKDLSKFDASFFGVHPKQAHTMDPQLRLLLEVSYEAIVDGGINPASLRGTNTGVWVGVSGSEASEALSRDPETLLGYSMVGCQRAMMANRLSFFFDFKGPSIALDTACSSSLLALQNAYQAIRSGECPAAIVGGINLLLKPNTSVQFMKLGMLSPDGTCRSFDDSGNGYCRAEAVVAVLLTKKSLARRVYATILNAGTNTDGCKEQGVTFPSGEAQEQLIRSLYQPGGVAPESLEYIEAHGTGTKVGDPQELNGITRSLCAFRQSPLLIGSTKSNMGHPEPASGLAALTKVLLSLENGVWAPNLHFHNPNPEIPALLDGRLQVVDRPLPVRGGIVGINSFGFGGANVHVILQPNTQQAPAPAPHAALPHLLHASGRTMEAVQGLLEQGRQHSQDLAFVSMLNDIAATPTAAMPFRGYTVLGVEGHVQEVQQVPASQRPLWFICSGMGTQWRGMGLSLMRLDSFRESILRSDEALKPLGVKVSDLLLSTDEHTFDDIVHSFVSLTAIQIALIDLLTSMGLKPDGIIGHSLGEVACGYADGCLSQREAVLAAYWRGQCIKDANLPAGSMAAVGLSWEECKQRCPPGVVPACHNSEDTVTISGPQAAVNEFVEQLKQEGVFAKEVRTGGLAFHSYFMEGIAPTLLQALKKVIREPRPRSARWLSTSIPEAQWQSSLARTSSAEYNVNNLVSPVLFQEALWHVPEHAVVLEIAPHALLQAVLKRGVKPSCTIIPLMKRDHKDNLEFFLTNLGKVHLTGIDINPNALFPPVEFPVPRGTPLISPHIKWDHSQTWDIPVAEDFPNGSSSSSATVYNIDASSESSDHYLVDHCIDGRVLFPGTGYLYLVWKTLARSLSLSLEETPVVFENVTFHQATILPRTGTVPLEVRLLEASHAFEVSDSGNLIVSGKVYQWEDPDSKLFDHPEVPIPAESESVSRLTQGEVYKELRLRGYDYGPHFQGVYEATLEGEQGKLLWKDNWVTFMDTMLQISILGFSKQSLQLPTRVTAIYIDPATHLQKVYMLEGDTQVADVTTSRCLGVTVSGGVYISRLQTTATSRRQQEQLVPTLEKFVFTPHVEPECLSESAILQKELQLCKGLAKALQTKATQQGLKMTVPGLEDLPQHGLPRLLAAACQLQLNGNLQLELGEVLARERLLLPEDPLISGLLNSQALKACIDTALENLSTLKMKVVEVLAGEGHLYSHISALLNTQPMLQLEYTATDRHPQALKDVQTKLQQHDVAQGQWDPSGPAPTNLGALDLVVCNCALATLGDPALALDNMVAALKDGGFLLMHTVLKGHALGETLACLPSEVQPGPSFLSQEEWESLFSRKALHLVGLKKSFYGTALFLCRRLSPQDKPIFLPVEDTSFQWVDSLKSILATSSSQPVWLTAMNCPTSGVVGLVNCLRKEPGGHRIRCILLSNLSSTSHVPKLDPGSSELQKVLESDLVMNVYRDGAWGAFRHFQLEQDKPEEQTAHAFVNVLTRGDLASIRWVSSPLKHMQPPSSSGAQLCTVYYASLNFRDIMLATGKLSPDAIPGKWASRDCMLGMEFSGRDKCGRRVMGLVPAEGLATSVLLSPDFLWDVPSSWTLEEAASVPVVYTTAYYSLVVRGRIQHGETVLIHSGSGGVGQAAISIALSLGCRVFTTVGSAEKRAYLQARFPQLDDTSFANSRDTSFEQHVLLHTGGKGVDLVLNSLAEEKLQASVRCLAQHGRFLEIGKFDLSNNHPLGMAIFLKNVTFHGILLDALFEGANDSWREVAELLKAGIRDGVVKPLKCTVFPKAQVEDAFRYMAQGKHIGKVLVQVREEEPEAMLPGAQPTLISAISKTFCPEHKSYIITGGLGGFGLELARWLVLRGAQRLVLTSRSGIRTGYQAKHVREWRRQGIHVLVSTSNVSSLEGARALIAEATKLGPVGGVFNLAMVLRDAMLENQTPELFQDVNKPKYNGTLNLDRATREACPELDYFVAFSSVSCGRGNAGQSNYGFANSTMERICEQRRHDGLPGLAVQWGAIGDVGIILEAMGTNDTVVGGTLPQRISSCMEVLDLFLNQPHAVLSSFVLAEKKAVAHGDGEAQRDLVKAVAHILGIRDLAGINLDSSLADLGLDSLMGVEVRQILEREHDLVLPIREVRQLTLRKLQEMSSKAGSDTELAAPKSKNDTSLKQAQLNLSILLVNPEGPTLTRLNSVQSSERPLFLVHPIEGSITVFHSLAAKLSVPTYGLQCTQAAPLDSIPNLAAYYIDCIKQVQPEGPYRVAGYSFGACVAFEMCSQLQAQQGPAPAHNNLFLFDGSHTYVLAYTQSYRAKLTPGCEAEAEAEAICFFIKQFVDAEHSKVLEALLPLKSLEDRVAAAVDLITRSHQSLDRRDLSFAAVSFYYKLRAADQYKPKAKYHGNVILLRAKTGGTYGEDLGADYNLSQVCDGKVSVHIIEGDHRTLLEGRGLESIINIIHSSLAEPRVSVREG
Description: (§1) Compounds with formula I (platensimycin) and II (platencin) were titrated against human or rat FAS using the Flashplate assay. Animal FAS activity was assayed radiochemically for the formation of ^3H-palmitate. The assay buffer contained 200 mM KPi, pH 7, 2 mM EDTA, 2.5 mM DTT, 5 μM Acetyl CoA (^3H-acetyl-CoA, Specific Activity=0.3 Ci/mmole), 21 μM malonyl-CoA, and 20 uM NADPH in a final reaction volume of 200 μl Assays are performed in 96-well Phospholipid coated FlashPlates (Perkin Elmer). The reaction was initiated by adding FAS (0.17 mUnits/well, 1 Unit=1μ mole of NADPH consumed/minute). The plates were incubated at RT for 5 minutes before adding 6 μl of perchloric acid to stop the reaction. The plates sat at RT for at least 3 hours, preferably overnight, before counting. Background was determined from wells without malonyl CoA. The source of Human FAS was SkBr3 cells. Cell extracts were processed by ammonium sulfate precipitation followed by DEAE chromatography essentially as described by Jayakumar et al., 1995 (Jayakumar A, Tai M H, Huang W Y, al-Feel W, Hsu M, Abu-Elheiga L, Chirala S S, Wakil S J. Human fatty acid synthase: properties and molecular cloning. Proc Natl Acad Sci USA. 1995 Sep. 12; 92(19):8695-9). […]

human FAS = molecular target: T2, human FAS (Homo sapiens, UniProt P49327); test: FAS inhibitory activity in cell free Flashplate assay (formation of 3H-palmitate), human FAS; type: biochemical; settings: human FAS from SkBr3 cells, cell free flash plate assay
T2 construct: Cell extracts were processed by ammonium sulfate precipitation followed by DEAE chromatography; endogenous in cells; host or cells: SkBr3 human breast cancer cells (endogenous FAS, partially purified)
T2 sequence (P49327 whole entry): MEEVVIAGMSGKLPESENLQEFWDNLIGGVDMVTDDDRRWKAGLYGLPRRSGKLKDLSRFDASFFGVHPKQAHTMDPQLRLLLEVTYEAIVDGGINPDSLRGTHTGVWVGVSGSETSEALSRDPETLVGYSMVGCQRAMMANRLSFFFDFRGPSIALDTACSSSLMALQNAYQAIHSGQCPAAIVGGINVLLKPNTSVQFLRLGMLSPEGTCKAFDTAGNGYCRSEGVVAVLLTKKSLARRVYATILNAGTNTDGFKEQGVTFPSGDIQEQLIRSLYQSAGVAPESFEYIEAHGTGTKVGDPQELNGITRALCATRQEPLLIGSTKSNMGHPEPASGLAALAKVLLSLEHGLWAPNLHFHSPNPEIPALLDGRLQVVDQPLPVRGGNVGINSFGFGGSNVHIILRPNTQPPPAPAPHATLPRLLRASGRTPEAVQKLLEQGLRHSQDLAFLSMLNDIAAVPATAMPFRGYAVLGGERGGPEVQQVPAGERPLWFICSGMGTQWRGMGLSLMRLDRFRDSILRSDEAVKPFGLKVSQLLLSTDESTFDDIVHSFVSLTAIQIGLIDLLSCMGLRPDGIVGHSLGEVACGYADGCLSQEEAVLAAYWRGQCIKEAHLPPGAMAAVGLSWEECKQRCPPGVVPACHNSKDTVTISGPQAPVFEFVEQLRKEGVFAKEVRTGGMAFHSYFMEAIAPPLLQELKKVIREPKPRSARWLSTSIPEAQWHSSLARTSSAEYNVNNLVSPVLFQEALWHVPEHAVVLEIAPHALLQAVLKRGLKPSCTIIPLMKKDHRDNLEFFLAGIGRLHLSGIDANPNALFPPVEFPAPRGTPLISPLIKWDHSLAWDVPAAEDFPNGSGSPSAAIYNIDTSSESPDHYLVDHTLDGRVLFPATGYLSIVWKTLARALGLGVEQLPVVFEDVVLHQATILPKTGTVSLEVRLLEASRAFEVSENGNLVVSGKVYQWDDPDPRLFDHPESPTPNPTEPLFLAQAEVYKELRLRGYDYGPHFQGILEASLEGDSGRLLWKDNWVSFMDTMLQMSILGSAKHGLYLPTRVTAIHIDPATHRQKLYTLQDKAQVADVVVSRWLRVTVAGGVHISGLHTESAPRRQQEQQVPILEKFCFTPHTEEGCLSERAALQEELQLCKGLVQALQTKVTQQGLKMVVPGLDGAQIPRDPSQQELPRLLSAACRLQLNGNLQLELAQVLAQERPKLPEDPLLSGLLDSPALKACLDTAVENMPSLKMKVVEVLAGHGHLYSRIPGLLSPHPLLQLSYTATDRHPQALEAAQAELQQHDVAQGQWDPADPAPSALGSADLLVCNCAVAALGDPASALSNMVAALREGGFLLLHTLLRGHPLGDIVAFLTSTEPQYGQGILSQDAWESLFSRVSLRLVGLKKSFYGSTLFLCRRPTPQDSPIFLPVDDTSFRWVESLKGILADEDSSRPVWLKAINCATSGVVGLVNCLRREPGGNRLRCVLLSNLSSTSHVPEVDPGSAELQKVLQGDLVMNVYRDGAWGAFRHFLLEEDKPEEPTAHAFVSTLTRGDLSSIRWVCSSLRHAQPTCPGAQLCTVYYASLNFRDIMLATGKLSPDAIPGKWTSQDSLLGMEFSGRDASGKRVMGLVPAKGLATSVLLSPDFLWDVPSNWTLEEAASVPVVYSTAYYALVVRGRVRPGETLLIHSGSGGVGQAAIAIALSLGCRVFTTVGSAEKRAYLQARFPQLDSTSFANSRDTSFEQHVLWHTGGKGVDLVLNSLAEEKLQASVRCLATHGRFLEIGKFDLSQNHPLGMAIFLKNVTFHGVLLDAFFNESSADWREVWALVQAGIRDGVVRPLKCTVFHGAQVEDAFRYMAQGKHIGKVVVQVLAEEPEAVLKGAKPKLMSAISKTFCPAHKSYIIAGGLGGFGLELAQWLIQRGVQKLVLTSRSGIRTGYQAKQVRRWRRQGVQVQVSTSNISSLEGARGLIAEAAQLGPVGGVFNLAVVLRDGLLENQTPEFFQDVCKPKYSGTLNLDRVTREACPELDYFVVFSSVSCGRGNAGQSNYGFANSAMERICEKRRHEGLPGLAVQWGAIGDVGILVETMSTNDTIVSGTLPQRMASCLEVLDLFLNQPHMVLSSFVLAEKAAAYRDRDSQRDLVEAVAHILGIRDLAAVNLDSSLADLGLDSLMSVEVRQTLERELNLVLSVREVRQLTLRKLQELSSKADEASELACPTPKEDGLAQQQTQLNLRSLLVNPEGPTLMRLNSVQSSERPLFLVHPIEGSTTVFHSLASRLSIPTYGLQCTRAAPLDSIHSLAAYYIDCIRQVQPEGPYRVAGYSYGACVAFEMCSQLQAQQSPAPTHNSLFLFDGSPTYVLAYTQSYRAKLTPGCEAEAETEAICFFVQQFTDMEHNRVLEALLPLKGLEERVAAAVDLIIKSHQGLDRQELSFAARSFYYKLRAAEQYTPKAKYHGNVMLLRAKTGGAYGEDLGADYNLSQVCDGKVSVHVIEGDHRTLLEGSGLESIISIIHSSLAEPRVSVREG
Description: as §1

[1] = test system: fatty acid synthesis in rat hepatocytes; test: Fatty acid synthesis in rat hepatocytes in vitro (C14-acetate incorporation); type: cell-based; settings: Hepatocyte, primary rat hepatocytes, read-out: Rat IC50 μM, fatty acid synthesis inhibitory activity
Excerpt: 115: 1030-1038 (2003) with modifications. […] The plates were gassed and sealed.

[2] = test system: fatty acid oxidation in rat hepatocytes
Description: Fatty acid oxidation in the hepatocytes was determined the conversion of C14-oleic acid to soluble acid products as described (Jiang G, Li Z, Liu F, Ellsworth K, Dallas-Yang Q, Wu M, Ronan J, Essau C, Murphy C, Szalkowski D, Bergeron R, Doebber T and Zhang B. Prevention of obesity in mice by antisense oligonucleotide inhibitors of stearoyl-CoA desaturase-1. J. Clin. Invest. 115: 1030-1038 (2003); Mannaerts G P, Debeer L J, Thomas J, ans DeSchepper P J. Mitochondrial and proxisomal fatty acid oxidation in liver homogenates and isolated hepatocytes from control and clofibrate-treated rats. J. Biol. Chem. 254:4585-4595 (1979)) with modifications. Hepatocytes seeded overnight and washed twice with PBS and then pre-incubated with compounds in 5 μl of DMSO in 2 ml medium199 plus 0.25% bovine serum albumin for 60 min. C14-oleic acid 0.25 μCi (NEN) was added to each well. The plates were gassed and sealed. After one hr incubation, 1 ml of medium was removed, mixed with 100 μl of 10% BSA and then 100 μl 60% HClO4. After centrifugation, 1 ml of the solution was counted the level of soluble acid products.

IC50 (rat FAS) [µM] | IC50 (human FAS) [µM] | Inhibition of Oxidation of Fatty Acids, Rat Hepatocyte (% of control at 10 uM) [2] | SMILES | IC50 [1] [µM]
0.18 | 0.3 | 59.7 % of control | C[C@]12C[C@@]34C=CC(=O)[C@@](C)(CCC(=O)Nc5c(O)ccc(C(=O)O)c5O)C3[C@H](CC1C4)O2 (stereo partly shown) [Formula I, platensimycin] | 0.093
 | 6.3 | 66.0 % of control | C=C1C[C@@]23C=CC(=O)[C@@](C)(CCC(=O)Nc4c(O)ccc(C(=O)O)c4O)[C@@H]2C[C@@H]1CC3 [Formula II, platencin] | 3.24
